The values that follow come from the Kinase Knowledgebase extract (Sharma et al. 2016).

The experiment concerns the target CDK2 (human) (UniProt P24941). Put plainly: Enzyme Assay.
With `N[C@H]1CC[C@H](Nc2nc(NCc3cccs3)c3ncn(C4CCCC4)c3n2)CC1`, the 50% inhibitory concentration (IC50) (usually the point on the concentration scale where inhibition reaches its midpoint) came to 56 nM.

Regarding `CCCCCCCCNc1nc(N[C@H]2CC[C@H](N)CC2)nc2c1ncn2C1CCCC1`, the IC50 was determined as 360 nM.

Molecule `N[C@H]1CC[C@H](Nc2nc(NCCCCc3ccccc3)c3ncn(C4CCCC4)c3n2)CC1` had an IC50 of 59 nM.

In turn, `N[C@H]1CC[C@H](Nc2nc(NCCCN3CCOCC3)c3ncn(C4CCCC4)c3n2)CC1` registered an IC50 of 116 nM.

The molecule `CCNc1nc(N[C@H]2CC[C@H](N)CC2)nc2c1ncn2C1CCCC1` yielded an IC50 of 13 nM.

As for `N[C@H]1CC[C@H](Nc2nc(NCCCO)c3ncn(C4CCCC4)c3n2)CC1`, the IC50 is 18 nM.

`N[C@H]1CC[C@H](Nc2nc(NNCC(F)(F)F)c3ncn(C4CCCC4)c3n2)CC1` returned an IC50 of 58 nM.

Consider `N[C@H]1CC[C@H](Nc2nc(NCCc3ccncc3)c3ncn(C4CCCC4)c3n2)CC1`, for which the IC50 is 69 nM.

With `CC(C)n1cnc2c(NCCCC(=O)c3ncc[nH]3)nc(N[C@H]3CC[C@H](N)CC3)nc21`, the IC50 was 840 nM.

For `CCCCNc1nc(N[C@H]2CC[C@H](N)CC2)nc2c1ncn2C1CCCC1`, the IC50 came out at 23 nM.

`CCCCCNc1nc(N[C@H]2CC[C@H](N)CC2)nc2c1ncn2C1CCCC1`: the IC50 worked out at 53 nM.

Molecule `CC(C)n1cnc2c(NCC3CC3)nc(N[C@H]3CC[C@H](N)CC3)nc21` registered a concentration for half-maximal inhibition (IC50) of 141 nM.
